Results as given in US10752588B2 (The Broad Institute, Inc., priority 2014, dated 2020).
Converted amounts (≈) assume the structure as drawn.

Tests used:
[1] = biological target: T1, human D2R/β-arrestin (Homo sapiens (Human), UniProt P14416); experiment: β-Arrestin agonist assay (PathHunter); assay type: cell-based; settings: CHO-K1 cell line expressing human D2R/β-arrestin
Outline: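 After compound incubation, detection reagent (Buffer:Emerald II:Galactor-Star, 19:5:1) added and luminescence or fluorescence read.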

[2] = biological target: T1, human D2R/β-arrestin; experiment: Gi/cAMP agonist assay (Lance Ultra cAMP, Forskolin); assay type: cell-based; settings: CHO-K1 cell line expressing human D2R/β-arrestin
Outline: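 Cells were plated and incubated before compounds were pin-transferred and incubated for 10 min at 37 °C. Forskolin was then added to stimulate cAMP. cAMP was detected by Lance Ultra TR-FRET using Eu-cAMP tracer and ULight-anti-cAMP antibody.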

[3] = Solubility in PBS; assay type: physicochemical; settings: aqueous buffer
[4] = Plasma protein binding, human; assay type: in vitro ADME; settings: plasma, read-out: Plasma Protein Binding % bound
[5] = Plasma protein binding, mouse; assay type: in vitro ADME; settings: plasma, read-out: Plasma Protein Binding % bound
[6] = Plasma protein binding, rat; assay type: in vitro ADME; settings: plasma, read-out: Plasma Protein Binding % bound
[7] = Plasma stability, human; assay type: in vitro ADME
[8] = Plasma stability, rat; assay type: in vitro ADME
[9] = Microsomal stability, human; assay type: in vitro ADME
[10] = Microsomal stability, rat; assay type: in vitro ADME
[11] = biological target: T1, human D2R/β-arrestin; experiment: cell-based; settings: β-arrestin Antagonist, CHO-K1 cell line expressing human D2R/β-arrestin; quinpirole used as agonist
Experimental: (§1) The detection reagents are then added, and the read-out is detected.
(§2) Cells were prepared for assays by growing cultures for up to 2 weeks (from about 6-20 passages). A vial of frozen cells was thawed in a water bath held at 37° C. The cells were then transferred into a 50 ml tube with 10 ml growth media. The vial was rinsed with growth media and the contents transferred to the 50 ml tube. The 50 ml tube was centrifuged at 1200 rpm for 5 minutes at room temperature. […] When the cells reached about 90% confluence (approximately 3 days between passages), the cells were passaged and used for either the agonist or antagonist assays as described below.
(§3) The cells were prepared for β-arrestin assays as described above. The assays were performed using a PathHunter® β-Arrestin Detecting Kit (DiscoveRX). The cells were grown on 225 mm dishes, then washed once with 1×PBS (Cellgro), followed by digestion with 2.5 ml 1× Detachment reagent (DRX 92-0009) for approximately 2 minutes.

[12] = biological target: T1, human D2R/β-arrestin; experiment: cell-based; settings: cAMP Antagonist, CHO-K1 cell line expressing human D2R/β-arrestin; quinpirole used as agonist
[13] = Plasma stability, mouse
[14] = Microsomal stability, mouse
[15] = tested on: Caco2; experiment: Caco2 permeability; assay type: in vitro ADME; set-up: unit not given beside the values; settings: for Caco2 A-B: A-B direction; for Caco2 B-A: B-A direction
[16] = tested on: plasma protein; experiment: Plasma protein binding, human; assay type: in vitro ADME; settings: plasma, read-out: Plasma Protein Binding % bound
[17] = tested on: plasma protein; experiment: Plasma protein binding, mouse; assay type: in vitro ADME; settings: plasma, read-out: Plasma Protein Binding % bound
[18] = tested on: plasma protein; experiment: Plasma protein binding, rat; assay type: in vitro ADME; settings: plasma, read-out: Plasma Protein Binding % bound
[19] = biological target: D2 (Homo sapiens (Human), UniProt P14416); experiment: D2 radioligand binding assay
[20] = biological target: T1, human D2R/β-arrestin; settings: CHO-K1 cell line expressing human D2R/β-arrestin, β-arrestin and Gi/cAMP pathways, FIG. 1
Experimental: as §1, §2, §3

T1 sequence (P14416 whole entry): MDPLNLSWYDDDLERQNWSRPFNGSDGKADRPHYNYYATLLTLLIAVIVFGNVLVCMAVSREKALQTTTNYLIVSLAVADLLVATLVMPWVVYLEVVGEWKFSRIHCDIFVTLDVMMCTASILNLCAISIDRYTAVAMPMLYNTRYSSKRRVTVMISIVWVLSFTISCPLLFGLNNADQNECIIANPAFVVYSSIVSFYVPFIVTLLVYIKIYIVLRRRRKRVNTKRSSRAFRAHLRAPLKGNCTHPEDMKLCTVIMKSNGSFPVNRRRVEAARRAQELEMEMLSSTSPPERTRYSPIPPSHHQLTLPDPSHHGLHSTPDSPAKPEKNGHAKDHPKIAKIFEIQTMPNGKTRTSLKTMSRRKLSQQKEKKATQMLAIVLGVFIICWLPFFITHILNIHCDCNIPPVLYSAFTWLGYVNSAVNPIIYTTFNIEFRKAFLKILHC
D2, sequence (P14416 whole entry): as above

Compound | EC50 [1] [nM] | EC50 [2] [nM] | solubility [3] [µM] | fraction unbound [4] | fraction unbound [5] | fraction unbound [6] | Plasma Stability: % remaining after 5 hours [7] [%] | Plasma Stability: % remaining after 5 hours [8] [%] | Microsomal Stability: % remaining after 60 minutes [9] [%] | Microsomal Stability: % remaining after 60 minutes [10] [%] | IC50 [11] [nM] | IC50 [12] [nM] | Plasma Stability: % remaining after 5 hours [13] [%] | Microsomal Stability: % remaining after 60 minutes [14] [%] | Caco2 A-B [15] | Caco2 B-A [15] | fraction unbound [16] | fraction unbound [17] | fraction unbound [18] | Ki [19] [nM] | also measured
O=C(NC(c1ccc(Cl)cc1)c1ccccn1)C1CCN(CCCc2ccccc2)CC1 (centres unmarked) [Compound 18, N-((4-chlorophenyl)(pyridin-2-yl)methyl)-1-(3-phenylpropyl)piperidine-4-carboxamide] | > 30000 | 100 to 1000 | 352 (≈ 158 µg/mL) | 0.046 | 0.056 | 0.027 | 94.9 | 93.2 | 78 | 55 | 1000 to 10000 | > 30000 | 90.5 | 43 | – | – | – | – | – | – | –
O=C(NC(c1ccc(F)cc1)c1ccccn1)C1CCN(CCOc2ccccc2F)CC1 (centres unmarked) [Compound 54, 1-(2-(2-fluorophenoxy)ethyl)-N-((4-fluorophenyl)(pyridin-2-yl)methyl) piperidine-4-carboxamide] | > 30000 | > 30000 | > 500 | – | – | – | 96 | 78 | 70 | 66 | 100 to 1000 | 100 to 1000 | 100 | 29 | 28.4 | 39.3 | 0.042 | 0.039 | 0.027 | – | –
O=C(NC(c1ccc(F)cc1)c1ccccn1)C1CCN(CCOc2ccccc2)CC1 (centres unmarked) [Compound 25] | > 30000 | 10000 to 30000 | 452 (≈ 196 µg/mL) | – | – | – | 100 | 94.5 | 93 | 100 | 1000 to 10000 | 10000 to 30000 | 97 | 76 | 33.7 | 50.5 | 0.08 | 0.047 | 0.03 | 1000 to 10000 | –
O=C(NC(c1ccc(F)cc1)c1ccccn1)C1CCN(CCOc2ccccc2Cl)CC1 (centres unmarked) [Compound 53, 1-(2-(2-chlorophenoxy)ethyl)-N-((4-fluorophenyl)(pyridin-2-yl)methyl) piperidine-4-carboxamide] | > 30000 | > 30000 | 149 (≈ 69.7 µg/mL) | – | – | – | 100 | 78 | 42 | 16 | < 100 | < 100 | 96 | 3 | 27.4 | 23.9 | 0.21 | 0.021 | 0.086 | 100 to 1000 | –
O=C(NC(c1ccc(Cl)cc1)c1cccnc1)C1CCN(CCOc2ccccc2)CC1 (centres unmarked) [Compound 111, N-((4-chlorophenyl)(pyridin-3-yl)methyl)-1-(2-phenoxyethyl)piperidine-4-carboxamide] | > 30000 | 100 to 1000 | – | 0.053 | 0.027 | 0.022 | 100 | 98 | 60 | 51 | 100 to 1000 | > 30000 | 100 | 39 | – | – | – | – | – | – | –
O=C(NC(c1ccncc1)c1ccc(Cl)cc1)C1CCN(CCOc2ccccc2)CC1 (centres unmarked) [Compound 112, N-((4-chlorophenyl)(pyridin-4-yl)methyl)-1-(2-phenoxyethyl)piperidine-4-carboxamide] | > 30000 | < 100 | 19 (≈ 8.55 µg/mL) | 0.064 | 0.05 | 0.02 | 100 | 95 | 52 | 53 | 1000 to 10000 | > 30000 | 95 | 29 | – | – | – | – | – | – | –
COc1cccc(C(NC(=O)C2CCN(CCOc3ccccc3)CC2)c2ccccc2)c1 (centres unmarked) [Compound 146, N-((3-methoxyphenyl)(phenyl)methyl)-1-(2-phenoxyethyl)piperidine-4-carboxamide] | > 30000 | > 30000 | – | 0.022 | 0.04 | 0.021 | 98 | 88 | 56 | 27 | 1000 to 10000 | 1000 to 10000 | 96 | 36 | – | – | – | – | – | – | –
O=C(NC(c1ccc(F)cc1)c1ccccn1)C1CCN(CCOc2ccccc2C(F)(F)F)CC1 (centres unmarked) [Compound 52] | > 30000 | > 30000 | 27 (≈ 13.5 µg/mL) | – | – | – | 84 | 55 | 46 | 7 | < 100 | < 100 | 89 | 7 | 12.5 | 9.0 | 0.009 | 0.009 | 0.021 | – | –
O=C(NC(c1ccccn1)C1CCCCC1)C1CCN(CCOc2ccccc2)CC1 (centres unmarked) [Compound 37, N-(cyclohexyl(pyridin-2-yl)methyl)-1-(2-phenoxyethyl)piperidine-4-carboxamide] | > 30000 | > 30000 | 197 (≈ 83.1 µg/mL) | 0.047 | 0.051 | 0.024 | 100 | 100 | 71 | 28 | 100 to 1000 | 1000 to 10000 | 98 | 31 | – | – | – | – | – | – | –
O=C(NC(c1ccc(Cl)cc1)c1ccccc1F)C1CCN(CCOc2ccccc2)CC1 (centres unmarked) [Compound 40, N((4-chlorophenyl)(2-fluorophenyl)methyl)-1-(2-phenoxyethyl) piperidine-4-carboxamide] | > 30000 | > 30000 | 0.4 (≈ 0.187 µg/mL) | – | – | – | 100 | 90 | 45 | 57 | 100 to 1000 | 100 to 1000 | 100 | 50 | 4.4 | 1.9 | 0.011 | 0.01 | 0.023 | 1000 to 10000 | –
O=C(NC(c1ccc(Cl)cc1)c1ccccn1)C1CCN(CCOc2ccccc2)CC1 (centres unmarked) [Compound 63, N-((4-chlorophenyl)(pyridin-2-yl)methyl)-1-(2-phenoxyethyl)piperidine-4-carboxamide] | > 30000 | 100 to 1000 | 476 (≈ 214 µg/mL) | 0.037 | 0.026 | – | 94.5 | – | 58 | 55 | 100 to 1000 | > 30000 | 93.4 | 37 | 25.1 | 19.9 | – | – | – | 100 to 1000 | functional profile at D2R (antagonist mode) [20]: representative β-arrestin biased D2R antagonists
